Assay results: patent US5041432A, “Steroid derivatives useful as hypocholesterolemics” (E. I. Du Pont de Nemours and Company, priority 1990, dated 1991)

Tests used:
[1] = test system: 3-Hydroxy-3-Methylglutaryl Coenzyme A Reductase (HMGR); experiment: HMGR Suppression Assay (HMGR activity in digitonin-permeabilized CHO cells); format: cell-based, Chinese Hamster (CHO cells); settings: tested under the same conditions as Table I
Description: The ability of the compounds of Formula I to suppress the activity of HMGR, the rate limiting enzyme of cholesterol biosynthesis, was tested as follows. Chinese Hamster Ovary (CHO) cells were divided twice weekly and were maintained in McCoy's 5A medium supplemented with 1% Cab-O-Sil delipidated Fetal Bovine Serum (FBS) (obtained from Gibco Laboratories, Chagrin Falls, Ohio). […] Control cells were treated in an identical fashion to those which received test compound, except they were incubated with the BSA and ethanol suspension only.
Specifically, the medium in each well was aspirated and the cells rinsed with a 50 mM solution of phosphate buffered saline (PBS). One mL of 30 μg/mL of digitonin in CSK buffer (prepared using 10 mM Pipes [piperazine-N,N'-bis(2-ethansulfonic)acid'], 100 mM KCl, 2.5 mM MgCl2, 300 mM sucrose, 1 mM EGTA, pH 6.8) was added to each well and incubated for 10 min at 22° to permeabilize the cells. […] HMGR activity was measured directly by adding 75 μL of PIB buffer (50 mM potassium phosphate, 1 mM Na2 EDTA, 10 mM dithiothreitol, pH 7.4) to each well and incubating the cells for 30 minutes at 37° as described above. […] The assay mixture was incubated for 30 min at 37° and terminated by the addition of 70 μL of [^3 H]-mevalonic acid (35,000 DPM/assay), 0.15 mg/mL in 3 N HCl. The reaction was left to lactonize for an additional 30 min at 37° or overnight at room temperature.
Reaction products were separated by thin layer chromatography on silica gel G (obtained from Analtech, Newark, Del.) developed in an unsaturated environment with acetone:benzene (3:2, v:v). The band corresponding to mevalonolactone was identified by exposure to iodine vapor and was scraped into counting vials. […] Corrections for recovery and blank values were made for each sample. […] Cellular protein was solubilized from culture dishes by the addition of 20 μL of 16 N KOH and assayed directly for protein amount. Suppression values are expressed as the amount of compound required to suppress HMGR activity by 50% relative to that of the controls.

[2] = biological target: T1, Lanosta-8,24-dien-3β-ol 14α-methyl demethylase (Rattus norvegicus, UniProt Q64654); experiment: Lanosta-8,24-dien-3β-ol 14α-Methyl Demethylase Inhibition Assay; format: biochemical
T1 construct: rat hepatic microsomal preparations; from tissue; host or cells: rat liver microsomes
T1 sequence (Q64654 1-503): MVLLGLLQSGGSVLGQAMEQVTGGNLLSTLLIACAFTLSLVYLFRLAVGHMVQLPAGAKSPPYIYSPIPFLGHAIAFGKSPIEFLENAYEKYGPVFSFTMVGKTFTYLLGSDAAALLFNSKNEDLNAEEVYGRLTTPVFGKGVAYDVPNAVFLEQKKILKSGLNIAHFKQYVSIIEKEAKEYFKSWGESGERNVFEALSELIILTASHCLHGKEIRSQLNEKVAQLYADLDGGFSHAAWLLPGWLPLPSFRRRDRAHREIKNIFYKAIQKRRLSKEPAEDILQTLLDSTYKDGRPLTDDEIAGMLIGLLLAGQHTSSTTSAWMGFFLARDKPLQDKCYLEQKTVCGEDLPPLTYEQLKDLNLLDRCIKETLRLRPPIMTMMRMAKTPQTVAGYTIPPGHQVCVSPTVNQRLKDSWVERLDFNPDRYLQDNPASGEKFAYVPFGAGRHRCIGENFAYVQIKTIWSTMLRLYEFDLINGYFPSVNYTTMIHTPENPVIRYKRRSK
Description: B. Lanosta-8,24-dien-3β-ol 14α-Methyl Demethylase Inhibition Assay
Lanosta-8,24-dien-3β-ol 14α-methyl demethylase activity was determined in rat hepatic microsomal preparations as described in Trzaskos et al., J. Biol. Chem., 261, 16937-16942 (1986). Specifically, test compounds were added to assay mixtures as detergent suspensions with substrate employing 5 mg Triton WR-1339, 100 μM lanost-8-en-3β-ol substrate, and test compounds ranging from 0 to 100 μM. The inhibitor/substrate/detergent suspension was incubated with 2 mg microsomal protein for 5 min at 37° followed by a 10 min incubation initiated by the addition of cofactors required for the reaction. […] Inhibition values are expressed as the amount of compound required to inhibit lanosta-8,24-dien-3β-ol 14α-methyldemethylase activity by 50% relative to that of the controls.

[3] = test system: de novo cholesterol synthesis; experiment: Decreasing de novo cholesterol synthesis (radiolabeled acetate incorporation into cholesterol in CHO cells); format: cell-based, Chinese Hamster (CHO cells); settings: Cricetulus griseus, 19 h, % of control culture (Control = 100)
Description: The ability of the compounds of Formula I to decrease de novo cholesterol synthesis was tested by measuring the incorporation of radiolabeled acetate into cholesterol synthesized in CHO cells. To conduct this experiment, CHO cells were plated at 0.3×10^6 cells per 15×60 mm tissue culture dish in 5 mL of McCoy's modified medium (Gibco Laboratories) containing 1% Cab-O-Sil delipidated FBS and incubated for 48 hours at 37° in a 5% CO2, 95% air environment. Test compounds in a 2.5% suspension of BSA (fatty acid free) in ethanol were then added to the cultures such that the final ethanol and BSA concentrations were 0.5% and 2.5%, respectively. Control cultures received ethanol and BSA alone. […]
The cells were harvested by washing the cells twice with 5 mL of cold PBS and scraping the cells into 1 mL PBS. […] The petroleum ether fractions were dried under nitrogen, resuspended in ethanol, counted and analyzed by reverse phase HPLC at 45° using an Ultrashpere Octyl column (from Altex Scientific Inc., Berkeley, Calif.) with a mobile phase of acetonitrile:methanol:water (44:44:12). The amount of cholesterol synthesis is measured by the amount of radiolabeled acetate incorporated into the cholesterol peak. The percent of cholesterol synthesis in the treated culture is calculated based upon the control culture.

effect on lanosta-8,24-dien-3β-ol 14α-methyl demethylase activity ([2]; tested under the same conditions as Table I) | Structure (SMILES) | effect on measured HMGR activity [1] | substrate for the demethylase enzyme [2] | IC50 ([2]; rat hepatic microsomes, 100 μM lanost-8-en-3β-ol substrate, test compounds 0 to 100 μM) [nM] | activity at 1 µM [3] [%]
 | CC(C)=CCC[C@@H](C)[C@H]1CC[C@@]2(C)C3=C(CC[C@]12C)[C@@]1(C)CC[C@H](O)C(C)(C)[C@@H]1CC3 [lanosta-8,24-dien-3β-ol] | without effect | clearly served as substrates |  | 
without effect | CC(C)CCC[C@@H](C)[C@H]1CC[C@H]2[C@@H]3CC=C4C[C@@H](O)CC[C@]4(C)[C@H]3CC[C@]12C [cholesterol] | without effect |  |  | 
 | CC(C)CCC[C@@H](C)[C@H]1CC[C@@]2(C)C3=C(CC[C@]12C)[C@@]1(C)CC[C@H](O)C(C)(C)[C@@H]1CC3 [lanost-8-en3β-ol, lanost-8-en-3β-ol] | without effect | clearly served as substrates |  | 
 | C=CC(O)[C@@]12CC[C@H]([C@H](C)CCCC(C)C)[C@@]1(C)CCC1=C2CC[C@H]2C(C)(C)[C@@H](O)CC[C@]12C (single isomer, unassigned) [Compound 11a, 4,4-dimethyl-14α-(1'-hydroxy-2'-propenyl)-5α-cholest-8-en-3β-ol] |  |  | 800 | 1
